How the values were obtained:
Type in all cases: in vivo, rat
sciatic nerve = assay: Motor nerve conduction velocity (sciatic nerve) in streptozotocin-diabetic rats; conditions: STZ-diabetic rats, lovastatin 5.5 mg/kg; for MNCV (motor nerve conduction velocity): 2-week treatment after 6 weeks untreated diabetes, ruboxistaurin 0.25 mg/kg, mean ± SEM; for correction of diabetic deficit in motor conduction velocity: individual doses: ruboxistaurin 0.25 mg/kg
Method: (§1) Diabetes is induced in mature (19 week old) male Sprague-Dawley by streptozotocin injection (40-45 mg/kg i.p.). The diabetic state is monitored weekly using commercially available test strips for blood (tail vein) and urine glucose levels. Body weight is also be monitored daily. The criteria for the diabetic state are; blood glucose>19.9 mM, glycosuria, and no evidence of body weight gain. After 6 weeks of untreated diabetes, drugs are administered for a 2-week period.
(§2) In final experiments, rats are anaesthetized with thiobutabarbital (50-100 mg kg^−1 i.p.). The trachea is cannulated for artificial respiration. As described in Cameron N E, Cotter M A, Robertson S (1989), “The effect of aldose reductase inhibition on the pattern of nerve conduction deficits in diabetic rats.” Q. J. Exp. Physiol. 74:917-926; and Cameron N E, Cotter M A, Robertson S (1991), “Effects of essential fatty acid supplementation on peripheral nerve and skeletal muscle function and capillarization in streptozotocin diabetic rats.” Diabetes 40:532-539, the sciatic nerve is exposed between the sciatic notch and knee. Bipolar stimulating electrodes are placed close to the nerve at the notch and knee. A concentric bipolar electrode is inserted into tibialis anterior muscle to monitor evoked electromyographic (EMG) activity. Potentials from each stimulating site are averaged 8 times. Motor conduction velocity is calculated by dividing the distance between stimulating electrodes by the average latency difference between the onset of EMG potentials evoked from the 2 sites. Nerve temperature is monitored using a thermocouple probe, and maintained in the range 36-38° C. by radiant heat. Body temperature is also maintained around 37° C. using a heated blanket. Sensory conduction velocity is measured for sensory saphenous nerve between groin and mid calf in a similar fashion, except that direct nerve evoked potentials are recorded at the ankle using a unipolar platinum hook electrode.

sensory saphenous nerve = assay: Sensory nerve conduction velocity (saphenous nerve) in streptozotocin-diabetic rats; conditions: STZ-diabetic rats, lovastatin 5.5 mg/kg; for SNCV (sensory nerve conduction velocity): 2-week treatment after 6 weeks untreated diabetes, ruboxistaurin 0.25 mg/kg, mean ± SEM; for correction of diabetic deficit in sensory conduction velocity: individual doses: ruboxistaurin 0.25 mg/kg
Method: as §1, §2

[1] = test system: sciatic nerve endoneurium; assay: Sciatic endoneurial blood flow by microelectrode polarography and hydrogen clearance in streptozotocin-diabetic rats; conditions: STZ-diabetic rats, ruboxistaurin 0.25 mg/kg, lovastatin 5.5 mg/kg, mean ± SEM; for Blood Flow (sciatic endoneurial nutritive): 2-week treatment after 6 weeks untreated diabetes; for Vascular Conductance: blood flow divided by mean arterial blood pressure, 2-week treatment
Method: as §1
Sciatic endoneurial blood flow is estimated in the limb contralateral to that for conduction velocity measurements by microelectrode polarography and hydrogen clearance. Day T J, Lagerlund T D, Low P A (1989), “Analysis of H2 clearance curves used to measure blood flow in rat sciatic nerve,” J Physiol 414:35-54; Cameron N E, Cotter M A, Low P A (1991), “Nerve blood flow in early experimental diabetes in rats: relation to conduction deficits.” Am J Physiol 261:E1-E8; Cameron N E, Cotter M A, Hohman T C (1996), “Interactions between essential fatty acid, prostanoid, polyol pathway and nitric oxide mechanisms in the neurovascular deficit of diabetic rats,” Diabetologia 39:172-182. Rats are artificially ventilated. The carotid artery is cannulated to monitor blood pressure. The level of anaesthesia is monitored by observing any reaction of blood pressure to manipulation, and supplementary thiobutabarbital anaesthetic is given as necessary. The sciatic nerve is exposed and the skin around the incision sutured to a metal ring to form a pool filled with mineral oil at 37° C. During recordings, pool temperature is maintained at 35-37° C. by radiant heat. A glass-insulated platinum microelectrode, polarized at 250 mV with respect to a subcutaneous reference electrode, is inserted into the sciatic nerve endoneurium between the sciatic notch and the nerve trifurcation above the knee. 10% H2 would be added to the inspired gas, the proportions of O2 and N2 being adjusted to 20% and 70% respectively. When the H2 current recorded by the electrode has stabilized, indicating equilibrium with arterial blood, the H2 supply is shut off and N2 delivery increased appropriately. H2 clearance is recorded until a stable baseline is reached, which is defined as no systematic decline in electrode current over 5 min. This procedure is then repeated at another nerve site. […] Assuming a tissue density of 1, nutritive blood flow would be calculated as d×100 (ml min^−1 100 g^−1). Vascular conductance is calculated by dividing blood flow by the mean arterial blood pressure over the recording period for that particular clearance curve. […]

Row | SMILES | MNCV (motor nerve conduction velocity) (sciatic nerve) | correction of diabetic deficit in motor conduction velocity (sciatic nerve) | SNCV (sensory nerve conduction velocity) (sensory saphenous nerve) | correction of diabetic deficit in sensory conduction velocity (sensory saphenous nerve) | Blood Flow (sciatic endoneurial nutritive) [1] | Vascular Conductance [1]
1 | CC[C@H](C)C(=O)O[C@H]1C[C@@H](C)C=C2C=C[C@H](C)[C@H](CC[C@@H]3C[C@@H](O)CC(=O)O3)[C@H]21 [LOV, lovastatin] | 54.0 ± 0.4 m/s | ~20% | 54.6 ± 0.4 m/s | ~20% | 10.4 ± 0.6 ml/min/100 g | 0.091 ± 0.006 ml/min/100 g/mm Hg
2 | CN(C)C[C@@H]1CCn2cc(c3ccccc32)C2=C(C(=O)NC2=O)c2cn(c3ccccc23)CCO1 [LY, (S)-9-((Dimethylamino)methyl)-6,7,10,11-tetrahydro-9H,18H-5,21:12,17-dimethenodibenzo(e,k)pyrrolo(3,4-h)(1,4,13)oxadiaza-cyclohexadecine-18,20(19H)-dione] | 53.5 ± 0.3 m/s | ~20% | 54.8 ± 0.3 m/s | ~20% | 10.7 ± 0.4 ml/min/100 g | 0.101 ± 0.008 ml/min/100 g/mm Hg

From US20070281988A1, “Combination Therapy for Vascular Complications Associated with Hyperglycemia” (priority 2004, published 2007)
